Results: US8192962B2, “Processes for detecting toxic substances” (Daikin Industries, Ltd., priority 2001, dated 2012)

Key:
DNA repair protein genes = assay: DNA chip mRNA expression in yeast, DNA repair protein genes (Table 3); type: cell-based, Saccharomyces cerevisiae S288C; conditions: incubated two hours, concentrations as in the 1st table
Description: (§1) Yeast (Saccharomyces cerevisiae S288C (α SUC2mal mel gap2 CUP1)) were incubated at 25° C. on YPD medium (yeast extract 1%, polypepton 2%, glucose 2%). One of toxic chemical substances was added to the cells at logarithmic growth phase, and the cells were further incubated for two hours. Cells were cultured without any chemical substance in the same condition, and were used as control. Concentrations of the chemical substances were defined to inhibit the growth of the yeast but not lead to death.
(§2) After completion of the incubation, the culture was centrifuged to collect the cells. To the cells, sodium acetate buffer (50 mM sodium acetate, 10 mM EDTA, 1% SDS) was added, and the mixture was shaken at 65° C. for five minutes, followed by returning to room temperature, and obtaining the supernatant, of which the procedures were repeated two times. To the supernatant, ½ amount of a solution of phenol/chloroform was added, and the mixture was centrifuged to give a supernatant, which was added with an equal amount of chloroform, and the mixture was centrifuged to give a supernatant. To the supernatant, an equal amount of isopropanol containing 0.3 M sodium acetate was added, and the mixture was allowed to stand at room temperature for 30 minutes, after which the mixture was centrifuged to give a sediment of the whole RNAs. Seventy % ethanol was added to the sediment, and the mixture was again centrifuged to give a sediment, which was then dried and dissolved in water. mRNA was isolated from the whole RNAs as followings. In view of the fact that a poly A chain is attached to the 3′ terminus of mRNA, a polynucleotide having a poly T structure which was immobilized on the surface of latex beads was used to trap the mRNA, and then the mRNA was washed and eluted with spine column (Oligotex-dT30<Super>mRNA Purification Kit, Takara). Reverse transcription of the mRNA was conducted with a reverse transcriptase (Super Script II Reverse Transcriptase; catalogue No. 18064-014, GibcoBRL) using fluorescence-labeled nucleotides to give cDNAs that were introduced with Cy3-dUTP or Cy5-dUTP during the reverse transcription.
(§3) The labeled cDNAs were dissolved in TE buffer (10mM Tris-HCl/1 mM EDTA, pH8.0), and the solution was dropped on the DNA chip containing the whole genes of yeast (DNA Chip Research Inc. Japan) so that the cDNAs were hybridized on the DNA chip at 65° C. for over 12 hours. The fluoresces intensity of the DNA chip was read with a scanner, and the ratio relative to the fluorescence intensity resulting from the absence of chemical substance was estimated as the following, which is shown in Tables 1 to 9: […]

[1] = system: Detoxification protein genes; assay: DNA chip mRNA expression in yeast, detoxification protein genes (Table 8); type: cell-based, Saccharomyces cerevisiae S288C
Description: as §1, §2, §3

SMILES: [Cl][Pb][Cl] [(4), PbCl2]
- The level of expressed mRNA in the presence of chemical substance/The level of expressed mRNA in the absence of chemical substance (DNA repair protein genes; yeast gene YAL015C): 1.9
- The level of expressed mRNA in the presence of chemical substance/The level of expressed mRNA in the absence of chemical substance (DNA repair protein genes; yeast gene YAR007C): 0.5
- The level of expressed mRNA in the presence of chemical substance/The level of expressed mRNA in the absence of chemical substance (DNA repair protein genes; yeast gene YBL019W): 1.2
- The level of expressed mRNA in the presence of chemical substance/The level of expressed mRNA in the absence of chemical substance (DNA repair protein genes; yeast gene YBR073W): 0.7
- The level of expressed mRNA in the presence of chemical substance/The level of expressed mRNA in the absence of chemical substance (DNA repair protein genes; yeast gene YBR272C): 1.0
- The level of expressed mRNA in the presence of chemical substance/The level of expressed mRNA in the absence of chemical substance (DNA repair protein genes; yeast gene YCR014C): 0.6
- The level of expressed mRNA in the presence of chemical substance/The level of expressed mRNA in the absence of chemical substance (DNA repair protein genes; yeast gene YDL017W): 1.3
- The level of expressed mRNA in the presence of chemical substance/The level of expressed mRNA in the absence of chemical substance (DNA repair protein genes; yeast gene YDL059C): 1.7
- The level of expressed mRNA in the presence of chemical substance/The level of expressed mRNA in the absence of chemical substance (DNA repair protein genes; yeast gene YDL200C): 1.8
- The level of expressed mRNA in the presence of chemical substance/The level of expressed mRNA in the absence of chemical substance (DNA repair protein genes; yeast gene YDR054C): 1.4
- The level of expressed mRNA in the presence of chemical substance/The level of expressed mRNA in the absence of chemical substance (DNA repair protein genes; yeast gene YDR369C): 1.1
- The level of expressed mRNA in the presence of chemical substance/The level of expressed mRNA in the absence of chemical substance (DNA repair protein genes; yeast gene YEL019C): 0.7
- The level of expressed mRNA in the presence of chemical substance/The level of expressed mRNA in the absence of chemical substance (DNA repair protein genes; yeast gene YEL037C): 1.0
- The level of expressed mRNA in the presence of chemical substance/The level of expressed mRNA in the absence of chemical substance (DNA repair protein genes; yeast gene YER162C): 1.1
- The level of expressed mRNA in the presence of chemical substance/The level of expressed mRNA in the absence of chemical substance (DNA repair protein genes; yeast gene YFL014W): 11.0
- The level of expressed mRNA in the presence of chemical substance/The level of expressed mRNA in the absence of chemical substance (DNA repair protein genes; yeast gene YGL058W): 0.7
- The level of expressed mRNA in the presence of chemical substance/The level of expressed mRNA in the absence of chemical substance (DNA repair protein genes; yeast gene YGL091C): 1.7
- The level of expressed mRNA in the presence of chemical substance/The level of expressed mRNA in the absence of chemical substance (DNA repair protein genes; yeast gene YGL127C): 1.7
- The level of expressed mRNA in the presence of chemical substance/The level of expressed mRNA in the absence of chemical substance (DNA repair protein genes; yeast gene YGL163C): 4.3
- The level of expressed mRNA in the presence of chemical substance/The level of expressed mRNA in the absence of chemical substance (DNA repair protein genes; yeast gene YGL249W): 0.8
- The level of expressed mRNA in the presence of chemical substance/The level of expressed mRNA in the absence of chemical substance (DNA repair protein genes; yeast gene YGR180C): 1.0
- The level of expressed mRNA in the presence of chemical substance/The level of expressed mRNA in the absence of chemical substance (DNA repair protein genes; yeast gene YGR231C): 1.0
- The level of expressed mRNA in the presence of chemical substance/The level of expressed mRNA in the absence of chemical substance (DNA repair protein genes; yeast gene YGR258C): 0.7
- The level of expressed mRNA in the presence of chemical substance/The level of expressed mRNA in the absence of chemical substance (DNA repair protein genes; yeast gene YHR164C): 0.7
- The level of expressed mRNA in the presence of chemical substance/The level of expressed mRNA in the absence of chemical substance (DNA repair protein genes; yeast gene YIL036W): 1.8
- The level of expressed mRNA in the presence of chemical substance/The level of expressed mRNA in the absence of chemical substance (DNA repair protein genes; yeast gene YIL072W): 2.6
- The level of expressed mRNA in the presence of chemical substance/The level of expressed mRNA in the absence of chemical substance (DNA repair protein genes; yeast gene YIL143C): 0.9
- The level of expressed mRNA in the presence of chemical substance/The level of expressed mRNA in the absence of chemical substance (DNA repair protein genes; yeast gene YIL153W): 2.9
- The level of expressed mRNA in the presence of chemical substance/The level of expressed mRNA in the absence of chemical substance (DNA repair protein genes; yeast gene YIR002C): 0.6
- The level of expressed mRNA in the presence of chemical substance/The level of expressed mRNA in the absence of chemical substance (DNA repair protein genes; yeast gene YJL026W): 1.0
- The level of expressed mRNA in the presence of chemical substance/The level of expressed mRNA in the absence of chemical substance (DNA repair protein genes; yeast gene YJR046W): 1.5
- The level of expressed mRNA in the presence of chemical substance/The level of expressed mRNA in the absence of chemical substance (DNA repair protein genes; yeast gene YJR052W): 1.0
- The level of expressed mRNA in the presence of chemical substance/The level of expressed mRNA in the absence of chemical substance (DNA repair protein genes; yeast gene YKL145W): 1.0
- The level of expressed mRNA in the presence of chemical substance/The level of expressed mRNA in the absence of chemical substance (DNA repair protein genes; yeast gene YLR103C): 0.4
- The level of expressed mRNA in the presence of chemical substance/The level of expressed mRNA in the absence of chemical substance (DNA repair protein genes; yeast gene YLR233C): 2.0
- The level of expressed mRNA in the presence of chemical substance/The level of expressed mRNA in the absence of chemical substance (DNA repair protein genes; yeast gene YLR288C): 1.8
- The level of expressed mRNA in the presence of chemical substance/The level of expressed mRNA in the absence of chemical substance (DNA repair protein genes; yeast gene YML032C): 0.7
- The level of expressed mRNA in the presence of chemical substance/The level of expressed mRNA in the absence of chemical substance (DNA repair protein genes; yeast gene YML058W): 1.9
- The level of expressed mRNA in the presence of chemical substance/The level of expressed mRNA in the absence of chemical substance (DNA repair protein genes; yeast gene YMR035W): 1.7
- The level of expressed mRNA in the presence of chemical substance/The level of expressed mRNA in the absence of chemical substance (DNA repair protein genes; yeast gene YMR072W): 1.0
- The level of expressed mRNA in the presence of chemical substance/The level of expressed mRNA in the absence of chemical substance (DNA repair protein genes; yeast gene YMR096W): 0.8
- The level of expressed mRNA in the presence of chemical substance/The level of expressed mRNA in the absence of chemical substance (DNA repair protein genes; yeast gene YMR284W): 2.0
- The level of expressed mRNA in the presence of chemical substance/The level of expressed mRNA in the absence of chemical substance (DNA repair protein genes; yeast gene YNL213C): 1.5
- The level of expressed mRNA in the presence of chemical substance/The level of expressed mRNA in the absence of chemical substance (DNA repair protein genes; yeast gene YNL250W): 1.2
- The level of expressed mRNA in the presence of chemical substance/The level of expressed mRNA in the absence of chemical substance (DNA repair protein genes; yeast gene YNL261W): 1.3
- The level of expressed mRNA in the presence of chemical substance/The level of expressed mRNA in the absence of chemical substance (DNA repair protein genes; yeast gene YNL312W): 0.7
- The level of expressed mRNA in the presence of chemical substance/The level of expressed mRNA in the absence of chemical substance (DNA repair protein genes; yeast gene YOL043C): 1.7
- The level of expressed mRNA in the presence of chemical substance/The level of expressed mRNA in the absence of chemical substance (DNA repair protein genes; yeast gene YOR005C): 0.8
- The level of expressed mRNA in the presence of chemical substance/The level of expressed mRNA in the absence of chemical substance (DNA repair protein genes; yeast gene YOR386W): 1.5
- The level of expressed mRNA in the presence of chemical substance/The level of expressed mRNA in the absence of chemical substance (DNA repair protein genes; yeast gene YPL022W): 1.2
- The level of expressed mRNA in the presence of chemical substance/The level of expressed mRNA in the absence of chemical substance (DNA repair protein genes; yeast gene YPL164C): 1.0
- The level of expressed mRNA in the presence of chemical substance/The level of expressed mRNA in the absence of chemical substance (DNA repair protein genes; yeast gene YPL194W): 1.1
- The level of expressed mRNA in the presence of chemical substance/The level of expressed mRNA in the absence of chemical substance (DNA repair protein genes; yeast gene YPR025C): 0.6
- The level of expressed mRNA in the presence of chemical substance/The level of expressed mRNA in the absence of chemical substance ([1]; yeast gene YBL064C): 1.7
- The level of expressed mRNA in the presence of chemical substance/The level of expressed mRNA in the absence of chemical substance ([1]; yeast gene YBR008C): 0.7
- The level of expressed mRNA in the presence of chemical substance/The level of expressed mRNA in the absence of chemical substance ([1]; yeast gene YBR145W): 0.9
